13 compounds from US9012431B2, “Boron-containing small molecules as anti-inflammatory agents” (Anacor Pharmaceuticals, Inc., priority 2008, dated 2015) can be followed below.

For one data set, the target named is T1, PDE1A3 (Homo sapiens, UniProt P54750).
T1 construct: made in house; host or cells: baculoviral expression system
As to the kind of experiment: PDE1 inhibition. To be noted: standard: 8-methoxymethyl-IBMX. Format: biochemical.

Another data set addresses T2, PDE7A1 (Homo sapiens, UniProt Q13946).
T2 construct: made in house; host or cells: baculoviral expression system
Kind of data set: PDE7 inhibition. Format: biochemical. To be noted: standard: BRL-50481; read-out: IC50 PDE7A1.

Data set [1] relates to TNF-α secretion from peripheral blood mononuclear cells (PBMCs). As to the kind of experiment: TNF-α secretion from PBMCs stimulated by LPS. Format: cell-based, human. To be noted: PBMC; LPS- and PHA-induced cytokine production by human PBMCs; read-out: IC50 TNFα (pro-inflammatory cytokines). The source says: (§1) Compounds were screened by a biochemical assay against PDE4 enzyme and cell-based cytokine release assays using PBMCs stimulated by LPS or phytohemagglutinin (PHA).

Data set [2] has as its system IL-10 production by human PBMCs. As to the kind of experiment: IL-10 production by LPS- or PHA-stimulated PBMCs. As to conditions: PBMC; LPS- and PHA-induced cytokine production by human PBMCs; read-out: IC50 IL-10 (Th2 cytokines). Type of data set: cell-based.
The test system of data set [3] is IL-5 production by human PBMCs. Kind of data set: IL-5 production by LPS- or PHA-stimulated PBMCs. Format: cell-based. As to conditions: PBMC; LPS- and PHA-induced cytokine production by human PBMCs; read-out: IC50 IL-5 (Th2 cytokines).
The test system of data set [4] is IL-2 secretion from PBMCs. As to the kind of experiment: IL-2 secretion from PBMCs stimulated with PHA. Format: cell-based, human. To be noted: PBMC; LPS- and PHA-induced cytokine production by human PBMCs; read-out: IC50 IL-2 (Th1 cytokines).
Excerpt: as §1

In data set [5] the test system is IFN-γ secretion from PBMCs. As to the kind of experiment: IFN-γ secretion from PBMCs stimulated with PHA. Type of data set: cell-based, human. As to conditions: PBMC; LPS- and PHA-induced cytokine production by human PBMCs; read-out: IC50 IFNg (Th1 cytokines).
Excerpt: as §1

Data set [6] relates to IL-1β production by human PBMCs. Kind of data set: IL-1β production by LPS- or PHA-stimulated PBMCs. Format: cell-based. As to conditions: PBMC; LPS- and PHA-induced cytokine production by human PBMCs; read-out: IC50 IL-1β (pro-inflammatory cytokines).
A further data set deals with T3, PDE3 Cat.
T3 construct: Recombinant human PDE enzymes were expressed in a baculoviral system.; PDE isoforms tested include
Kind of data set: PDE3 inhibition. Format: biochemical. As to conditions: standard: Cilostazol.

The next data set relates to TNF-α. As to the kind of experiment: Cytokine assay, TNF-α release from PBMC. Type of data set: cell-based. To be noted: Homo sapiens, PBMC, 24 h, 1 μg/mL LPS, supernatant at 24 hours. An outline of the steps: (§2)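 Human PBMC (frozen, thawed), RPMI 1640 + 10% FBS; compound at 10, 1, 0.1, 0.01 μM from 10 mM DMSO stock, n=3; cytokine release read.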
In a further data set the test system is IFN-γ. Kind of data set: Cytokine assay, IFN-γ release from PBMC. Format: cell-based. To be noted: human PBMC, 20 ug/mL PHA, supernatant at 24 hours. The gist of the method:
as §2

Data set [7] has as its system T4, PDE4 partially purified from human U-937 myeloid leukemia cells.
T4 construct: PDE4 partially purified from human U-937 myeloid leukemia cells was used
As to the kind of experiment: PDE4 Assay (enzyme from U-937 cells, [3H]cAMP). Format: biochemical. As to conditions: PDE4 from U-937 cells, Tris buffer pH 7.5, 20 minutes at 25° C.

The subject of the next data set is IL-2. As to the kind of experiment: Cytokine assay, IL-2 release from PBMC. Type of data set: cell-based. To be noted: human PBMC, 20 ug/mL PHA, supernatant at 24 hours. An outline of the steps:
as §2

The next data set has as its system IL-5. As to the kind of experiment: Cytokine assay, IL-5 release from PBMC. Type of data set: cell-based. As to conditions: human PBMC, 20 ug/mL PHA, supernatant at 48 hours. The gist of the method:
as §2

For a further data set, the system named is BALB/c male mice. As to the kind of experiment: Oxazolone Induced Mouse Ear Edema Model. As to conditions: Acetone:Ethanol/1:1, ear thickness 24 hours after second oxazolone application; for inhibition in vivo at 1 mg: 1 mg/ear × 2 topical. Format: in vivo. Here is the method:
2. In Vivo Anti-Inflammation Activity in Oxazolone Induced Mouse Ear Edema Model
Groups of 5 BALB/c male mice weighing 23±2 g were used. The preshaved abdomens of test animals were sensitized by application of 100 μl, of 1.5% oxazolone solution dissolved in acetone. Seven days after the initial sensitization, test substances, as well as vehicle (acetone:ethanol/1:1, 20 μL/ear) were each administered topically to the anterior and posterior surfaces of the right ear 30 minutes before, and 15 minutes after, challenge by a second application of oxazolone (1% in acetone, […]) via topical route. As a positive control, indomethacin (0.3 mg/ear×2) was administered topically using the same treatment regime as for the test compounds. Twenty-four hours after the second application of oxazolone, the ear thickness of each mouse was measured with a Dyer model micrometer gauge. A 30 percent or more inhibition in ear swelling relative to the vehicle control was considered significant and indicated possible anti-inflammatory activity.

The test system of the next data set is IL-10. Kind of data set: Cytokine assay, IL-10 release from PBMC. Type of data set: cell-based. To be noted: human PBMC, 20 ug/mL PHA, supernatant at 48 hours. The gist of the method: as §2
Data set [8] deals with CD-1 (Crl.) derived male mice. Kind of data set: Phorbol Ester Induced Mouse Ear Edema Model. As to conditions: topical, 6 h; for inhibition in vivo at 1 mg: 1 mg/ear × 2 topical. Format: in vivo. The gist of the method:
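Test compounds in acetone:ethanol 1:1 were applied topically to both ears 30 min before and 15 min after PMA challenge; dexamethasone positive control followed the same schedule. Ear thickness was measured by micrometer 6 h after PMA, and percent inhibition was calculated from ear-thickness increase versus vehicle controls.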

The subject of the next data set is PMA induced ear edema. As to the kind of experiment: PMA induced ear edema (acute skin irritation model). Type of data set: in vivo. To be noted: acetone/ethanol vehicle; 5% C27, 15% dexamethasone; p<0.01.

Molecules are shown by their SMILES. pIC50: −log10 of the molar value. Bounds are passed on as bounds.

T1 sequence (P54750 whole entry): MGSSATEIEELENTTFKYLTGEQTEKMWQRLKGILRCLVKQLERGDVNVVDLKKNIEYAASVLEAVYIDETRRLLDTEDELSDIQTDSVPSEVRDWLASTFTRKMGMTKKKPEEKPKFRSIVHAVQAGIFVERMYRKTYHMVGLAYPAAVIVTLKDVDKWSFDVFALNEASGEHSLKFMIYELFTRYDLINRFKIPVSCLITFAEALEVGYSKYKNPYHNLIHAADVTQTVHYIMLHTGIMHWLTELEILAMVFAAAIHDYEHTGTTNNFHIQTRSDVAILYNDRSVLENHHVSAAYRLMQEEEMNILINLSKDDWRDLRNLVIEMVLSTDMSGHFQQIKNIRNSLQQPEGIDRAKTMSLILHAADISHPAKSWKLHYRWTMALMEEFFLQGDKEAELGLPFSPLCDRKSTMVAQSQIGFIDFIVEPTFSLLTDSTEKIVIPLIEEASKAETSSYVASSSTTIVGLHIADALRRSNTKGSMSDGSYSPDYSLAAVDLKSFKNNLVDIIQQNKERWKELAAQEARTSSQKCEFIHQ
T2 sequence (Q13946 whole entry): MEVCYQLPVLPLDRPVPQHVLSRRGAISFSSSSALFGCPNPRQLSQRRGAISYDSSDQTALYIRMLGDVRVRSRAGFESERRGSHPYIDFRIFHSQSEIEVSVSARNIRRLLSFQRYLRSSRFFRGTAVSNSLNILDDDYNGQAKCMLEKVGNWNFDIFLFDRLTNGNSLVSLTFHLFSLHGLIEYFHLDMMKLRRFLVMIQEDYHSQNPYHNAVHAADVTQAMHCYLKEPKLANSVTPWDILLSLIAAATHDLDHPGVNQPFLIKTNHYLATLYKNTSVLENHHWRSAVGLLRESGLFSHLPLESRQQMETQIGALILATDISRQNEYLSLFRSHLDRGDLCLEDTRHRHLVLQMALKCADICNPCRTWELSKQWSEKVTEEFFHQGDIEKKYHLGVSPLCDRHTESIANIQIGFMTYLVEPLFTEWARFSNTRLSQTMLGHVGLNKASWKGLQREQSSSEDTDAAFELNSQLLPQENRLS

For orientation: melting point means the temperature of the solid-liquid transition. The compound `N#Cc1ccc(Oc2ccc(B(O)O)cc2)cc1` had a melting point of 194 to 198 °C.
A word on the pIC50: it is the IC50 on a negative log10 scale, so that one unit is a factor of ten. Regarding `COCc1nc2c([nH]1)c(=O)n(C)c(=O)n2CC(C)C` [8-methoxymethyl-IBMX, reference compound], the negative-log IC50 (pIC50) at PDE1A3 was 5.00 to 6.00.
`Cc1ccc([N+](=O)[O-])cc1S(=O)(=O)N(C)C` [BRL-50481, reference compound]: the pIC50 at PDE7A1 was 5.00 to 6.00.
Take `COc1ccc([C@]2(C#N)CC[C@@H](C(=O)O)CC2)cc1OC1CCCC1` [Cilomilast]: the negative-log IC50 (pIC50) in data set [1] is above 6.00; in [2] it was 5.00 to 6.00; in data set [3], above 6.00; in [4] it was above 6.00; in [5], above 6.00; in data set [6], below 4.52.
As to `O=C1CCc2cc(OCCCCc3nnnn3C3CCCCC3)ccc2N1` [Cilostazol, cilostazol, reference compound], the negative-log IC50 (pIC50) in the data set on PDE3 Cat is 5.00 to 6.00.
Take `CCOC(=O)c1ccc(Oc2ccc3c(c2)COB3O)cc1OC` [D35, 4-(1-Hydroxy-1,3-dihydro-benzo[c][1,2]oxaborol-5-yloxy)-2-methoxy-benzoic acid ethyl ester]: the melting point was in the range of 64.9 to 65.2 °C. In the data set with TNF-α, the negative-log IC50 (pIC50) was above 6.00. The same compound gave a pIC50 in the data set with IFN-γ above 6.00. For the same compound, the negative logarithm of the IC50 (pIC50) in data set [7] was above 6.00. The compound also had a pIC50 with IL-2 above 6.00.
As for `COc1cc(Oc2ccc3c(c2)COB3O)ccc1C(=O)O` [D36, 4-(1-Hydroxy-1,3-dihydro-benzo[c][1,2]oxaborol-5-yloxy)-2-methoxy-benzoic acid], the melting point was in the range of 109.6 to 110.1 °C. Further, the pIC50 in the data set with TNF-α is below 5.00. The compound also gave a pIC50 with IFN-γ below 5.00. The same compound gave a pIC50 in the data set on IL-2 below 5.00.
On to `COC(=O)c1ccc(Oc2ccc3c(c2)COB3O)nc1C(=O)OC` [D44, 6-(1-Hydroxy-1,3-dihydro-benzo[c][1,2]oxaborol-5-yloxy)-pyridine-2,3-dicarboxylic acid dimethyl ester], for which the melting point fell in the range of 67.5 to 69.2 °C. Besides, the pIC50 in the data set on TNF-α is above 6.00. This compound also had a negative-log IC50 (pIC50) in the data set on IFN-γ above 6.00. Besides, the pIC50 in data set [7] is above 6.00. Further, the negative-log IC50 (pIC50) with IL-2 is above 6.00.
Regarding `CCOC(=O)c1nc(Oc2ccc3c(c2)COB3O)ccc1C#N` [D45, 3-Cyano-6-(1-hydroxy-1,3-dihydro-benzo[c][1,2]oxaborol-5-yloxy)-pyridine-2-carboxylic acid ethyl ester], the melting point fell in the range of 204 to 206 °C. In the data set on TNF-α, this compound had a negative logarithm of the IC50 (pIC50) above 6.00. In the data set on IFN-γ, this compound had a negative-log IC50 (pIC50) above 6.00. Moreover, the pIC50 in [7] was above 6.00. In the data set with IL-2, this compound had a pIC50 above 6.00.
By inhibition in vivo is commonly meant the drop in the measured response relative to a control, in per cent. Read a low inhibition in vivo as little suppression. Regarding `CCOC(=O)c1ccc(Oc2ccc3c(c2)COB3O)nc1` [D60, Ethyl 6-(1-hydroxy-1,3-dihydrobenzo[c][1,2]oxaborol-5-yloxy)nicotinate], the melting point lay in the range of 110 to 113 °C. The compound further showed a pIC50 with IL-5 above 6.00. In the data set on BALB/c male mice (0.1 mg/ear × 2 topical), the inhibition in vivo at 0.1 mg was below 20%. In addition, the inhibition in vivo at 0.2 mg in the data set with BALB/c male mice (0.2 mg/ear × 2 topical) is below 20%. The compound also gave an inhibition in vivo at 1 mg in the data set with BALB/c male mice below 20%. This compound had a pIC50 in the data set with TNF-α above 6.00. This compound also showed a pIC50 in the data set on IFN-γ above 6.00. Further, in data set [7], the pIC50 is above 6.00. The same compound showed a negative logarithm of the IC50 (pIC50) in the data set with IL-10 above 6.00. The inhibition in vivo at 0.1 mg in [8] (0.1 mg/ear × 2 topical, Acetone:Ethanol/1:1, ear swelling 6 hours after PMA) was below 30%. Further, in data set [8] (0.2 mg/ear × 2 topical, Acetone:Ethanol/1:1, ear swelling 6 hours after PMA), the inhibition in vivo at 0.2 mg is below 30%. The compound further returned an inhibition in vivo at 1 mg in data set [8] (Acetone:Ethanol/1:1, ear swelling 6 hours after PMA) of 30 to 60%. Also, in the data set on IL-2, the pIC50 is above 6.00.
On to `CCOc1cc(Oc2ccc3c(c2)COB3O)ccc1C#N` [D124, 2-Ethoxy-4-(1-hydroxy-1,3-dihydrobenzo[c][1,2]oxaborol-5-yloxy)benzonitrile], for which the pIC50 (in the data set on IL-5; in the data set on TNF-α; in the data set with IFN-γ; in [7]; with IL-10; with IL-2) was above 6.00 in each case. For the same compound, the inhibition in vivo at 1 mg in the data set on BALB/c male mice is below 20%; in data set [8] (95% Ethanol, ear swelling 6 hours after PMA), below 30%.
Consider `COc1ccc(C2CNC(=O)C2)cc1OC1CCCC1` (stereo not drawn) [Rolipram, rolipram, reference compound], for which the negative logarithm of the IC50 (pIC50) (in [1]; in the data set on IL-5; in the data set on TNF-α; in data set [2]; in the data set with IFN-γ; in the data set on IL-10) was above 6.00 throughout. The pIC50 is above 6.00 in [3]; above 6.00 with IL-2; above 6.00 in data set [4]; above 6.00 in data set [5]; below 4.52 in data set [6].
Turning to `C[C@@H]1C[C@H]2[C@@H]3CCC4=CC(=O)C=C[C@]4(C)[C@@]3(F)[C@@H](O)C[C@]2(C)[C@@]1(O)C(=O)CO` [dexamethasone, reference compound], the inhibition in vivo at 1 mg in data set [8] (vehicle not given, ear swelling 6 hours after PMA) was 60 to 90%. Besides, in the data set on PMA induced ear edema, the “inhibition of PMA induced ear edema” value is 73%.
